In patent US10214527B2, “Triazolopyridine inhibitors of myeloperoxidase” (priority 2015, dated 2019):

What follows are compounds tested against myeloperoxidase (MPO) (Homo sapiens (Human), UniProt P05164) (assay: MPO peroxidation assay (Amplex Red assay)). Conditions: not given.
Type: biochemical

myeloperoxidase (MPO), sequence (P05164 49-745): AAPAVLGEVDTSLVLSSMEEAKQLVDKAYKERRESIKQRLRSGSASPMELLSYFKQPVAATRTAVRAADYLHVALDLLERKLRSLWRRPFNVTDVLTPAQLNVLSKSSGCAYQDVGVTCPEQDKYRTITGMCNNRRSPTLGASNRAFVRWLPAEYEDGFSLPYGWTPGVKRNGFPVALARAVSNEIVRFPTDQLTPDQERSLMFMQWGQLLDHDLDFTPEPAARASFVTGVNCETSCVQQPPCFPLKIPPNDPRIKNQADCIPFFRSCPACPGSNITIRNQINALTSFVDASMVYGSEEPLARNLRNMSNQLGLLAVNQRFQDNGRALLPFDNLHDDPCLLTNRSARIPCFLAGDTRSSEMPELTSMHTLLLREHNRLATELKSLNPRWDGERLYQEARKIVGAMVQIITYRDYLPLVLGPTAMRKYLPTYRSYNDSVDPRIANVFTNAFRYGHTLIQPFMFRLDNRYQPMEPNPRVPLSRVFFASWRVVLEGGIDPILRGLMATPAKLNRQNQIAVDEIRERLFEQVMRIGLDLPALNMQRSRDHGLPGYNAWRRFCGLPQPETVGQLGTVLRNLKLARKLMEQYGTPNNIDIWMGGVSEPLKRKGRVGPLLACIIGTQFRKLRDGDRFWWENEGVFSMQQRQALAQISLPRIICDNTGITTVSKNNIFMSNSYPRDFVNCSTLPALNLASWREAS

Row | SMILES | IC50
1 | Nc1cc(Cc2cccc(Cl)c2)c2nn[nH]c2n1 [Example 2, 7-(3-chlorobenzyl)-3H-[1,2,3]triazolo [4,5-b]pyridin-5-amine] | 1 to 100 nM
2 | Nc1cc(Cc2ccc3ccccc3c2)c2nn[nH]c2n1 [Example 6, 7-(naphthalen-2-ylmethyl)-3H-[1,2,3] triazolo[4,5-b]pyridin-5-amine] | 101 to 999 nM
3 | COC(=O)c1cccc(Cc2cc(N)nc3[nH]nnc23)c1 [Example 7, Methyl 3-((5-amino-3H-[1,2,3]triazolo[4,5-b]pyridin-7-yl)methyl)benzoate] | 1 to 100 nM
4 | Nc1cc(Cc2cccc(-c3ccccc3)c2)c2nn[nH]c2n1 [Example 17, 7-(Biphenyl-3-ylmethyl)-3H-[1,2,3]triazolo[4,5-b]pyridin-5-amine] | 1 to 100 nM
5 | Nc1cc(Cc2ccccc2F)c2nn[nH]c2n1 [Example 23, 7-(2-fluorobenzyl)-3H-[1,2,3]triazolo [4,5-b]pyridin-5-amine] | 1 to 100 nM
6 | Nc1cc(Cc2cccc(C(F)(F)F)c2)c2nn[nH]c2n1 [Example 26, 7-(3-(trifluorometh-yl)benzyl)-3H-[1,2,3]triazolo [4,5-b]pyridin-5-amine] | 1000 to 10000 nM

Same assay, conditions: MPO peroxidation, potency range class; read-out: Amplex Red Assay IC50 value

Row | IC50 | SMILES
7 | 101 to 999 nM | Cc1ccc(Cc2cc(N)nc3[nH]nnc23)cc1 [Example 3, 7-(4-methylbenzyl)-3H-[1,2,3]triazolo [4,5-b]pyridin-5-amine]
8 | 101 to 999 nM | COc1ccc(Cc2cc(N)nc3[nH]nnc23)cc1 [Example 4, 7-(4-methoxybenzyl)-3H-[1,2,3] triazolo[4,5-b]pyridin-5-amine]
9 | 1 to 100 nM | N#Cc1ccc(F)c(Cc2cc(N)nc3[nH]nnc23)c1 [Example 8, 3-((5-amino-3H-[1,2,3]triazolo [4,5-b]pyridin-7-yl)methyl)-4-fluorobenzo-nitrile]
10 | 1 to 100 nM | Cc1cccc(Cc2cc(N)nc3[nH]nnc23)c1F [Example 9, 7-(2-fluoro-3-methylbenzyl)-3H-[1,2,3]triazolo [4,5-b]pyridin-5-amine]
11 | 101 to 999 nM | Cc1ccc(-c2cccc(Cc3cc(N)nc4[nH]nnc34)c2)cc1 [Example 15, 7-((4′-methyl-[1,1′-biphenyl]-3-yl)methyl)-3H-[1,2,3]triazolo [4,5-b] pyridin-5-amine]
12 | 101 to 999 nM | Nc1cc(Cc2ccc3cc(F)ccc3c2)c2nn[nH]c2n1 [Example 19, 7-((6-fluoronaphthalen-2-yl)methyl)-3H-[1,2,3]triazolo [4,5-b]pyridin-5-amine]
13 | 101 to 999 nM | Nc1cc(Cc2ccc3c(c2)OCO3)c2nn[nH]c2n1 [Example 20, 7-(benzo[d][1,3]dioxol-5-ylmethyl)-3H-[1,2,3]triazolo [4,5-b]pyridin-5-amine]
14 | 101 to 999 nM | Nc1cc(Cc2ccc3c(c2)CCC3)c2nn[nH]c2n1 [Example 22, 7-((2,3-dihydro-1H-inden-5-yl)methyl)-3H-[1,2,3]triazolo [4,5-b]pyridin-5-amine]
15 | 1 to 100 nM | Nc1cc(Cc2cccc(F)c2)c2nn[nH]c2n1 [Example 24, 7-(3-fluorobenzyl)-3H-[1,2,3]triazolo [4,5-b]pyridin-5-amine]

The remaining lines, values behind:

Row | SMILES | IC50
16 | COC(=O)c1ccc(Cc2cc(N)nc3[nH]nnc23)c(OC)c1 [Example 10, methyl 4-((5-amino-3H-[1,2,3]triazolo[4,5-b]pyridin-7-yl)methyl)-3-methoxybenzo-ate] | 101 to 999 nM
17 | CC(C)(C)OC(=O)N1CCCc2cc(Cc3cc(N)nc4[nH]nnc34)ccc21 [Example 12, tert-butyl 6-((5-amino-3H-[1,2,3]triazolo[4,5-b]pyridin-7-yl)methyl)-3,4-dihydroquinoline-1(2H)-carboxylate] | 101 to 999 nM
18 | Nc1cc(Cc2c(F)ccc(Cl)c2F)c2nn[nH]c2n1 [Example 18, 7-(3-chloro-2,6-difluorobenzyl)-3H-[1,2,3]triazolo [4,5-b]pyridin-5-amine] | 1 to 100 nM
19 | Nc1cc(Cc2cccc(Oc3ccc(F)cc3)c2)c2nn[nH]c2n1 [Example 27, 7-(3-(4-fluorophenoxy)benzyl)-3H-[1,2,3]triazolo [4,5-b]pyridin-5-amine] | 101 to 999 nM
